Source: ChEMBL document CHEMBL4706723, “Novel N-Heteroaryl Indazole Derivatives as LRRK2 Inhibitors for Treating Parkinson's Disease” (ACS Med Chem Lett, 2021)

Biological target: Leucine-rich repeat serine/threonine-protein kinase 2 (Homo sapiens, UniProt Q5S007, G2019S)
Assay: Inhibition of recombinant human GST tagged LRRK2 G2019S mutant catalytic domain (970 to 2527 residues) expressed in baculovirus expression system using fluorescein-labeled LRRKtide as substrate preincubated for 15 mins followed by substrate addition and measured after 90 mins by TR-FRET based Lanthascreen assay

Chain of Leucine-rich repeat serine/threonine-protein kinase 2 (Q5S007 whole entry G2019S, the tested form may be a part): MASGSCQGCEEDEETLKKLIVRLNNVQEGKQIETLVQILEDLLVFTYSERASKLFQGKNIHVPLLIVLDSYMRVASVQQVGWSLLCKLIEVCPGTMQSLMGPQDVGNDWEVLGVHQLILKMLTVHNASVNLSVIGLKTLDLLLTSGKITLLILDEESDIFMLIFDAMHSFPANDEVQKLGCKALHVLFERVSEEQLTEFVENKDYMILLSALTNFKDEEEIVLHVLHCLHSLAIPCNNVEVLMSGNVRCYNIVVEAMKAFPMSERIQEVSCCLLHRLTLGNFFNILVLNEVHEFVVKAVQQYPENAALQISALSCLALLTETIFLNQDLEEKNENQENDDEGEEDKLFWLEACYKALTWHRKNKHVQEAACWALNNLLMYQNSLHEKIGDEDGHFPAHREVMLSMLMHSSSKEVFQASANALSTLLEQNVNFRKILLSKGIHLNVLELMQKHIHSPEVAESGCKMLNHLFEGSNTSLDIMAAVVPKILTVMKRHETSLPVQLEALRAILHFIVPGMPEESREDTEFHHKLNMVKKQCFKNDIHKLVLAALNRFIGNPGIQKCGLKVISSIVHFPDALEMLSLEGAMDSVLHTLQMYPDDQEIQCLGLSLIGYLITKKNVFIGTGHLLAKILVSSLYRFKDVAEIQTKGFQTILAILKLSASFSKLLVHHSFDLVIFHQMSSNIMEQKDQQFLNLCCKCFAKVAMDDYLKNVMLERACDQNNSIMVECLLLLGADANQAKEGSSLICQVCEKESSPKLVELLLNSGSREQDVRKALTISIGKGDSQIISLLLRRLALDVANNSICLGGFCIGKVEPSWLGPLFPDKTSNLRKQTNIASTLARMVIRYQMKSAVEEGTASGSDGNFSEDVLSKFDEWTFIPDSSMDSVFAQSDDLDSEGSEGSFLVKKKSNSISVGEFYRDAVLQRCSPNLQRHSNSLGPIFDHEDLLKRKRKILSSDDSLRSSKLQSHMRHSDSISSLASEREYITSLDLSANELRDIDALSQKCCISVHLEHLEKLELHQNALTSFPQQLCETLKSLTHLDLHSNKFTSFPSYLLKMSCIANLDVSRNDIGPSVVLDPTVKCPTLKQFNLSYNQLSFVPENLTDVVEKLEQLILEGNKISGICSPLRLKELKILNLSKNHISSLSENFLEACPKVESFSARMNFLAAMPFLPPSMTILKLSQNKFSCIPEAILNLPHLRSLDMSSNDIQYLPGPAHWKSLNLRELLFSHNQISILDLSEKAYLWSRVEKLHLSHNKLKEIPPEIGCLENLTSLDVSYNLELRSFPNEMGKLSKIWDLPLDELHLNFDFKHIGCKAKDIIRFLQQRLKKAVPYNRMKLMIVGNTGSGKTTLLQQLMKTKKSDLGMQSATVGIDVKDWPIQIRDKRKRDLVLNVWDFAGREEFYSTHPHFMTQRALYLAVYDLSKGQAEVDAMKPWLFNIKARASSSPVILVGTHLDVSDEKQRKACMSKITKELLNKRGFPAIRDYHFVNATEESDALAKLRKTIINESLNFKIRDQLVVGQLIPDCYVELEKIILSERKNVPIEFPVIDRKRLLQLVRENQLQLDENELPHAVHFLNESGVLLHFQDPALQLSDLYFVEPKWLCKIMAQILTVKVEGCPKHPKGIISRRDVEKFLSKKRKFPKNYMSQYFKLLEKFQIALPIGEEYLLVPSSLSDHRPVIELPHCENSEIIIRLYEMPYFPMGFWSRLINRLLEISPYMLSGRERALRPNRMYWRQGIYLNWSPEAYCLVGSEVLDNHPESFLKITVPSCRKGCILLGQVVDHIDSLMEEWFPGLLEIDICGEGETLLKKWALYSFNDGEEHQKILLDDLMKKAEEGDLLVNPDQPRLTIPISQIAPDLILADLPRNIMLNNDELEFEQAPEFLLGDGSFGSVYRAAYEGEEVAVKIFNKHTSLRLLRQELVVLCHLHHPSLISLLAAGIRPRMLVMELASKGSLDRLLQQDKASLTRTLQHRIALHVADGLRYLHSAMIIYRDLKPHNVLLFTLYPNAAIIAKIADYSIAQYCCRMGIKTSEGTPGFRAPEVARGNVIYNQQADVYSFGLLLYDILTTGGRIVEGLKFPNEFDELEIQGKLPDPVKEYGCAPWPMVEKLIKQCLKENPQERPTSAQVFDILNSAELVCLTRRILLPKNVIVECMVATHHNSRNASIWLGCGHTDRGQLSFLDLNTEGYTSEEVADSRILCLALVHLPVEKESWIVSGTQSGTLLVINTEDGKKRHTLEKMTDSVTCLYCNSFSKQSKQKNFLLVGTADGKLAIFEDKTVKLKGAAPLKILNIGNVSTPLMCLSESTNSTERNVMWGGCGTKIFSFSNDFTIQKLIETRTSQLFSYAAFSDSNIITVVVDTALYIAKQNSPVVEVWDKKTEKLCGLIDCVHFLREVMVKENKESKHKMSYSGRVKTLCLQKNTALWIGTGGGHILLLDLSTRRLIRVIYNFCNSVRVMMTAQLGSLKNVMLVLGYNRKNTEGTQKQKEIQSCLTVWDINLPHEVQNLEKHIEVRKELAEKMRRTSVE

SMILES	IC50 [nM]
Cn1cc(-n2ncc3cc(Cl)c(C4CCN(C5(C)CCOC5)CC4)cc32)cn1 (stereo not drawn)	< 0.625
CC1(N2CCC(c3cc4c(cnn4-c4cnn(C56CC(C#N)(C5)C6)c4)cc3Cl)CC2)COC1	< 0.625
CC1(N2CCC(c3cc4c(cnn4-c4cnn(C56CC(C5)C6)c4)cc3Cl)CC2)COC1	0.71
